Values after ≈ are worked out from the molar mass of the structure shown.
Settings: buffer; pH 7.4; 200.0 µM

SMILES | solubility kinetic [µg/mL]
Cc1ccc2c(CN3CCCCC3C)cc(=O)oc2c1C.Cl (stereo not given) | 20.9
CCC(C(=O)OCC(=O)N1C(C)CCCC1C)c1ccccc1 (stereo not given) | 45.1 (≈ 142 µM)
O=C(c1ccccc1)c1nccn1-c1ccc(Cl)nn1 | > 42.7
O=C(Nc1cccc(F)c1)c1c(O)c2ccccc2[nH]c1=O | < 0.3
CCSc1nsc(NC(=O)Nc2ccccc2OC)n1 | 2.6 (≈ 8.38 µM)
O=S(=O)(CCc1ccncc1)Cc1ccc2c3c(cccc13)CC2 | 11.8 (≈ 35 µM)
Cc1ccc(C(=O)/C=C/c2ccccc2[N+](=O)[O-])cc1 | 6.8 (≈ 25.4 µM)
Cc1ccc(C(=O)C(C)OC(=O)c2ccc(Cl)nc2)cc1 (stereo not given) | 34.1 (≈ 112 µM)
COc1cc(N)c(Cl)cc1C(=O)OCC(=O)NCC1CCCO1 (stereo not given) | > 51.4
CC(=O)NCCc1c(C)n(Cc2ccccc2)c2ccccc12 | > 46
CCn1cc(C(=O)NCc2ccc(OC)cc2)c(=O)c2ccc(C)nc21 | 0.4 (≈ 1.14 µM)
O=C(NCCc1cccc(Cl)c1)c1cccs1 | > 39.9
CCCCCCCCNc1nc(Cl)nc(NCCN2CCOCC2)n1 | 0.5 (≈ 1.35 µM)
Cl.c1ccc(C2NCCc3ccccc32)cc1 (stereo not given) | > 36.9
Nc1ccc2nc(SCc3ccccc3F)sc2c1 | 16 (≈ 55.1 µM)
CC1(C)CC(NS(=O)(=O)c2ccc(F)cc2)CC(C)(C)N1 | 47.1 (≈ 150 µM)
O=C1Nc2ccc(Br)cc2C(c2ccccc2)=NC1O (stereo not given) | > 49.7
CN(CCOC(=O)/C=C/c1ccco1)Cc1ccccc1 | > 42.8
O=C(O)C1C2C=CC(C2)C1C(=O)NCc1ccc(Cl)cc1Cl (stereo not given) | 45.3 (≈ 133 µM)
O=C(COC(=O)c1ccc[nH]c1=O)NCCc1ccc(F)cc1 | 44.6 (≈ 140 µM)
O=C(NC1CCSc2ccccc21)c1cccc(OC(F)F)c1 (stereo not given) | 4.5 (≈ 13.4 µM)
O=[N+]([O-])c1ccc(N2CCN(c3ccccc3)CC2)cc1 | < 0.2
COc1cc(C2C(C#N)=C(SC)NC3=C2C(=O)CCC3)ccc1O (stereo not given) | > 51.4
O=C(c1ccccc1)N1CCN(C(=O)c2cccnc2)CC1 | > 44.3

SMILES | solubility kinetic [µg/mL]
COc1ccccc1NC(=O)CSc1nnc(-c2ccccn2)o1 | > 51.4
COc1cccc(C(=O)NCCCNC(=O)c2ccccn2)c1 | 43.3 (≈ 138 µM)
O=C(NCCOc1cccc2cccnc12)c1cccs1 | > 44.8
CN1CCC(CNC(=O)Nc2csc3ccccc23)CC1 | > 45.5
CCc1ccc(C2CC(=O)Nc3c2c(=O)nc2c(C)cccn32)cc1 (stereo not given) | > 50
O=C(c1ccc(S(=O)(=O)NCc2ccco2)cc1)N1CCN(c2ccccc2)CC1 | 9.1 (≈ 21.4 µM)
CO/N=C(\c1ccccc1)c1cccnc1 | 23.2 (≈ 109 µM)
CCn1c(NC(=O)C(C)C)c(-c2cccs2)c(=O)c2ccccc21 | > 51.1
CCO/C=C1/C(=O)N(c2ccc(OC)cc2)C(=O)c2ccccc21 | > 48.5
O=C(CSc1ncccn1)Nc1ccc2c(c1)CCC2 | 37.9 (≈ 133 µM)
Cn1c(=O)[nH]c(=O)c2c1[nH]c(=S)n2Cc1ccc(Cl)cc1 | 42.3 (≈ 131 µM)
Cn1nc(C(F)(F)F)c(-c2ccccc2)c1NC(=O)CSCC(=O)O | > 56
O=C(O)c1c2c(nc3ccccc13)/C(=C/c1cccc([N+](=O)[O-])c1)CCC2 | > 54.1
CC(C)(C)c1ccc(NC(=S)NCCc2ccccn2)cc1 | 5.1 (≈ 16.3 µM)
NC(=O)CCN1CCN(S(=O)(=O)/C=C/c2ccccc2)CC1 | 42.4 (≈ 131 µM)
COc1ccc(C2NC(c3ccc(OC)cc3)C(C)C(=O)C2C)cc1 (stereo not given) | 12.2 (≈ 35.9 µM)
COC(=O)C1=C2SCC(=O)N2C(N)=C(C#N)C1 | > 37.7
Cc1ccc(C2(C)NC(=O)N(CC(=O)N3CCc4ccccc43)C2=O)cc1 (stereo not given) | 3.6 (≈ 9.91 µM)
O=C(Nc1ccc([N+](=O)[O-])cc1)N1CCc2ccccc2C1 | 22 (≈ 74 µM)
O=C(Nc1nccs1)C1CC(=O)N(c2ccc(F)cc2)C1 (stereo not given) | 9.7 (≈ 31.8 µM)
COCC(=O)Nc1nc(-c2ccc([N+](=O)[O-])cc2)cs1 | 7.3 (≈ 24.9 µM)
N=C(N=C(N)N)N1CCc2ccccc21 | > 30.5
CCOc1ccc2c(c1)[nH]c(=S)n2C | > 31.2
CCOc1ccc(NC(=O)c2cc(OC)nc3ccccc23)cc1 | 0.6 (≈ 1.86 µM)

SMILES | solubility kinetic [µg/mL]
COc1ccc(OC)c(-c2cc(-c3cccnc3)nc(N)c2C#N)c1 | 1.7 (≈ 5.11 µM)
CCOc1ccccc1CN1CCN(C2CCC2)CC1CCO (stereo not given) | 39.9 (≈ 125 µM)
O=C(C#Cc1ccccc1)Nc1cccc(F)c1 | 8.7 (≈ 36.4 µM)
COc1ccccc1C1=NOC(CN2C(=O)c3ccccc3S2(=O)=O)C1 (stereo not given) | 34.6 (≈ 92.9 µM)
COc1ccc(NC(=O)c2cc(-c3cccs3)on2)cc1 | 0.3 (≈ 0.999 µM)
O=C(COc1cccc2cccnc12)NCc1cccs1 | 37.6 (≈ 126 µM)
CN(c1ccc(O)cc1)S(=O)(=O)c1ccc2ccccc2c1 | > 47
C=CCOc1ccc(CN(C)C(=O)C2CCCO2)cc1 (stereo not given) | > 41.3
CCOC(=O)C1=C(C)N=C2SC(C)C(=O)N2C1c1ccccc1 (stereo not given) | 48.5 (≈ 147 µM)
CC(C)c1nc2sc(C(=O)O)c(N)c2c2c1CCCC2 | 14.6 (≈ 50.3 µM)
COc1ccc(N=C(C)c2sc3ccccc3c2O)cc1 | < 0.6
O=[N+]([O-])c1ccc2nonc2c1Nc1ccccc1 | 0.7 (≈ 2.73 µM)
O=C1NC(=O)C(=Cc2ccc(-c3ccccc3[N+](=O)[O-])o2)C(=O)N1 | 44.2 (≈ 135 µM)
CCOC(=O)C(=CNc1cscc1S(=O)(=O)C(C)C)C(=O)OCC | 38.9 (≈ 104 µM)
O=C(COC(=O)C1CCCCC1)NCc1ccc(Cl)cc1 | 31.7 (≈ 102 µM)
CSc1ccc(CN2CCCCCC2)cc1 | 22.1 (≈ 93.9 µM)
O=C(CSc1nnc(-c2ccncc2)o1)Nc1nncs1 | > 48.1
Cc1ccc(C(=O)N2CCN(c3ncccn3)CC2)c(C)c1 | 27.5 (≈ 92.8 µM)
COc1cc(N)c(Cl)cc1C(=O)OCC(=O)NC(=O)NCc1ccco1 | 5.3 (≈ 13.9 µM)
O=C(CSc1nccc(=O)[nH]1)c1ccco1 | > 35.4
Cn1c(N)c(C(=O)COC(=O)/C=C/c2cccc(Cl)c2)c(=O)n(C)c1=O | 3.3 (≈ 8.74 µM)
CC(CN1C(C)CCCC1C)OC(=O)c1ccccc1Cl (stereo not given) | > 46.5
CCOc1cc(OCC)cc(C(=O)NCc2ccco2)c1 | 5.5 (≈ 19 µM)
O=C1CCC(C(=O)OCC(=O)c2ccccc2)N1 (stereo not given) | > 37.1

SMILES | solubility kinetic [µg/mL]
O=S(=O)(Nc1ccccc1Cl)c1cccc2nsnc12 | > 48.9
Cl.NC(c1ccccc1)c1ccncc1 (stereo not given) | > 38.6
O=C(CN1C(=O)NC(CCc2ccccc2)C1=O)Nc1ccccc1C(F)(F)F (stereo not given) | 5.2 (≈ 12.8 µM)
CN(CC(=O)NCC1CCCCC1)S(=O)(=O)c1ccc(F)cc1 | 16.2 (≈ 47.3 µM)
COc1ccccc1C1CCN(C(=O)c2cccc([N+](=O)[O-])c2)CC1 | 39.5 (≈ 116 µM)
CC(C)C(=O)OCC(=O)NCc1ccccc1Cl | 37.6 (≈ 139 µM)
CC(CCc1ccccc1)NC(=O)c1cnc(Cl)c(Cl)c1 (stereo not given) | 5.5 (≈ 17 µM)
O=C(NCc1ccc2c(c1)OCO2)C(=S)N1CCOCC1 | > 46.3
Cc1cccc(NC(=O)c2cccc(N3C(=O)CCC3=O)c2)c1 | > 46.3
O=C(C1CC(=O)N(c2ccc(F)cc2)C1)N1CCCCC1 (stereo not given) | 39 (≈ 134 µM)
CC(=O)Nc1ccc(-c2cn3c(n2)SCC3)cc1 | 34.4 (≈ 133 µM)
CC(=O)c1cn(CCOc2ccccc2C)c2ccccc12 | < 0.6
CCCc1c(C)nc(-c2ccc(C)cc2)nc1OC(=O)N(C)C | 27.3 (≈ 87.1 µM)
COc1ccc(CCNC(=O)CCC(=O)NC2CCCC(C)C2C)cc1OC (stereo not given) | 39.3 (≈ 101 µM)
COC(=O)c1c(C)[nH]c(C(=O)OCC(=O)c2c(N)n(CC(C)C)c(=O)n(C)c2=O)c1C | 14 (≈ 32.2 µM)
O=C(NCCCO)C(=O)NCc1ccncc1 | > 35.6
CNC(=S)Nc1cccc(S(=O)(=O)NC2=NCCC2)c1 | 45.7 (≈ 146 µM)
CCOC(=O)/C(C#N)=C/c1cccc(F)c1 | 28.6 (≈ 130 µM)
COC(=O)c1sc(N(C)C)c(C#N)c1-c1ccccc1 | 1.8 (≈ 6.29 µM)
C=CCN=C1CCCc2c1[nH]c1ccc(C)cc21 | 10.3 (≈ 43.2 µM)
Cc1ccc(C)n1-c1nccc(-c2ccco2)n1 | 23.5 (≈ 98.2 µM)
CCn1c(CCNC(=O)c2ccco2)nc2ccccc21 | 40.5 (≈ 143 µM)
O=C(NCC1CCCO1)c1cccc(Oc2ccccc2)c1 (stereo not given) | 40.1 (≈ 135 µM)
COc1ccc(-n2cc(-c3ccc(Br)cc3)[nH]c2=S)cc1 | < 0.4

SMILES | solubility kinetic [µg/mL]
CC(C)N(Cc1ccccc1)C(=O)COC(=O)c1cc[n+]([O-])cc1 | > 49.3
COC(=O)C1=C(C)Nc2nc3ccccc3n2C1c1ccccc1F (stereo not given) | 0.3 (≈ 0.889 µM)
COc1ccccc1-n1c(SCC(=O)NCc2ccc3c(c2)OCO3)nc2cc([N+](=O)[O-])ccc21 | 3.1 (≈ 6.29 µM)
CCCC(=O)N1CC(=O)Nc2ccc(C)cc2C1c1ccccc1 (stereo not given) | > 48.4
Cl.NCCc1nnc(SCc2ccccc2Cl)o1 | > 45.9
Clc1cc(Br)ccc1NCc1cccnc1 | 24.7 (≈ 83 µM)
COCCCNc1nc(N)c([N+](=O)[O-])c(NC2CCCCC2)n1 | 2.8 (≈ 8.63 µM)
CCOC(=O)C1(CCOC)CCN(C(=O)c2sccc2C)CC1 | > 50.9
Cc1ccc(NC(=O)CCCc2nc3ccccc3s2)c(O)c1 | > 49
Br.COc1ccc(C2=CSC3=NCCN23)cc1Br | 54.4
COc1ccc(N2CCN(C(=O)Cc3coc4cc(C)ccc34)CC2)cc1 | 25.9 (≈ 71.1 µM)
Nc1nc(NCC(=O)O)nc(N2CCCCCC2)c1[N+](=O)[O-] | 44.1 (≈ 142 µM)
NC1=NC(c2ccc(Cl)cc2)C(C(=O)c2ccccc2)N1 (stereo not given) | 4.9 (≈ 16.3 µM)
CN(C)S(=O)(=O)c1cc(C(=O)NCc2ccccc2)c(Cl)cc1Cl | 47.1 (≈ 122 µM)
C=CCN=C1CC(C)(C)C(C(=O)OC)C(O)=C1C(=O)CCC (stereo not given) | > 46.1
O=C(Nc1ccc(O)cc1C(=O)O)c1cccs1 | > 39.5
COC(=O)c1sccc1NC(=O)Nc1cccc(C(C)=O)c1 | 19.1 (≈ 60 µM)
COc1ccccc1Oc1ccc(NC(=O)Cc2ccccc2)cc1 | < 0.7
COc1ccc(CN(C)C(=O)Cc2c[nH]c3ccccc23)cc1 | 30.4 (≈ 98.6 µM)
CC1(c2ccccc2)NC(=O)N(CC#N)C1=O (stereo not given) | 34.3 (≈ 150 µM)
Cc1cc(N2CCNCC2)nc2ccccc12 | 33.3 (≈ 146 µM)
CCOC(=O)C1CCN(S(=O)(=O)c2c(Cl)ccc3nonc23)CC1 | > 56.1
CC(C)CNC(=O)N1c2ccccc2Sc2ccccc21 | 7.1 (≈ 23.8 µM)
Cc1nonc1NC(=O)CSc1ccccn1 | > 37.5

— PubChem BioAssay AID1996
